Reference: the supplement of paper PMC10307832

What was measured:
Experiment in all cases: relative viability (nuclei count vs DMSO), 5 days (fraction); higher = more cells survive
[1] = compound: CCn1c(-c2nonc2N)nc2c(C#CC(C)(C)O)ncc(OC[C@H]3CCCNC3)c21 + CC1(C)CCC(c2ccc(Cl)cc2)=C(CN2CCN(c3ccc(C(=O)NS(=O)(=O)c4ccc(N[C@H](CCN5CCOCC5)CSc5ccccc5)c(S(=O)(=O)C(F)(F)F)c4)cc3)CC2)C1 [Navitoclax] (partner 0.5 µM)
Summary of the method: (§1)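 Nuclei were stained with Hoechst during a one-step fixation (final 0.05% Triton X-100, 1% formaldehyde, 1 ug/ml Hoechst) carried out 5 days after dosing, then counted on 4× images. The cells, lung cancer lines in 1536-well plates, had been dosed by pin tool the day after seeding with one drug alone or a fixed anchor-drug dose plus five library-drug doses (not always all listed) in √10 steps. Relative viability is the nuclei count in treated wells divided by that in vehicle wells, and each value is the median of duplicate plates.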

[2] = compound: CCOC1=CC=CC=C1N=NC2=C(NN(C2=O)C3=NC(=CS3)C4=CC=CC=C4)C [BAM7] + O=C(CCCCCCC(=O)Nc1ccccc1)NO [Vorinostat] (partner 1 µM)
Summary of the method: as §1

[3] = compound: CCOC1=CC=CC=C1N=NC2=C(NN(C2=O)C3=NC(=CS3)C4=CC=CC=C4)C [BAM7] + Nc1ncn([C@H]2C[C@H](O)[C@@H](CO)O2)c(=O)n1 [Decitabine] (partner 2 µM)
Summary of the method: as §1

[4] = compound: CCOC1=CC=CC=C1N=NC2=C(NN(C2=O)C3=NC(=CS3)C4=CC=CC=C4)C [BAM7] + COc1cc2c(Oc3ccc(NC(=O)C4(C(=O)Nc5ccc(F)cc5)CC4)cc3F)ccnc2cc1OCCCN1CCOCC1 [Foretinib] (partner 0.25 µM)
Summary of the method: as §1

| Cell Line | relative viability ([1]; first compound 0.01 µM) | relative viability ([1]; first compound 0.03162 µM) | relative viability ([1]; first compound 0.1 µM) | relative viability ([1]; first compound 0.3162 µM) | relative viability ([1]; first compound 1 µM) | relative viability ([2]; first compound 0.5 µM) | relative viability ([2]; first compound 5 µM) | relative viability ([2]; first compound 15.81 µM) | relative viability ([2]; first compound 50 µM) | relative viability ([3]; first compound 0.5 µM) | relative viability ([3]; first compound 5 µM) | relative viability ([3]; first compound 15.81 µM) | relative viability ([3]; first compound 50 µM) | relative viability ([4]; first compound 0.5 µM) | relative viability ([4]; first compound 5 µM) | relative viability ([4]; first compound 15.81 µM) | relative viability ([4]; first compound 50 µM) |
| --- | --- | --- | --- | --- | --- | --- | --- | --- | --- | --- | --- | --- | --- | --- | --- | --- | --- |
| COR-L 105 | 0.613 | 0.715 | 0.74 | 0.67 | 0.654 | 0.889 | 0.952 | 0.895 | 0.906 | 0.606 | 0.7 | 0.678 | 0.622 | 0.957 | 1.24 | 0.937 | 0.979 |
| ChaGo-K-1 | 1.1 | 0.88 | 0.951 | 0.899 | 1.14 | 0.627 | 0.787 | 0.701 | 0.742 | 0.508 | 0.515 | 0.512 | 0.536 | 0.806 | 0.928 | 0.724 | 0.983 |
| EKVX | 0.882 | 0.858 | 0.927 | 0.908 | 0.853 | 0.611 | 0.664 | 0.457 | 0.513 | 0.372 | 0.355 | 0.284 | 0.334 | 0.792 | 0.79 | 0.541 | 0.987 |
| EMC-BAC-2 | 1.17 | 1.18 | 1.15 | 1.07 | 1.13 | 0.478 | 0.485 | 0.658 | 0.483 | 0.973 | 1.05 | 1.01 | 1.12 | 0.974 | 1.04 | 0.985 | 1.05 |
| EPLC-272H | 1.24 | 1.21 | 0.932 | 1.16 | 0.906 | 0.623 | 0.427 | 0.477 | 0.358 | 0.382 | 0.418 | 0.317 | 0.392 | 0.653 |  | 0.632 | 0.811 |
| H3255 | 0.526 | 0.571 | 0.429 | 0.407 | 0.466 | 0.819 | 0.763 | 0.733 | 0.811 | 0.588 | 0.612 | 0.582 | 0.603 | 0.774 | 0.868 | 0.806 | 0.858 |
| HARA | 1.09 | 1.2 | 1.14 | 1.16 | 1.14 | 0.333 | 0.767 | 0.304 | 0.439 | 0.538 | 0.59 | 0.545 | 0.531 | 0.913 | 0.833 | 0.779 | 1.02 |
| HCC-15 | 0.72 | 0.752 | 0.721 | 0.634 | 0.653 | 0.703 | 0.729 | 0.605 | 0.667 | 0.607 | 0.587 | 0.621 | 0.676 | 1 | 1.04 | 0.982 | 1 |
| HCC-78 | 0.661 | 0.826 | 0.678 | 0.654 | 0.71 | 0.382 | 0.455 | 0.436 | 0.459 | 0.965 | 0.696 | 0.731 | 0.752 | 0.566 | 0.516 | 0.564 | 0.58 |
| HCC-366 | 0.967 | 1.1 | 1.01 | 1.06 | 1.02 | 0.301 | 0.28 | 0.356 | 0.344 | 0.325 | 0.327 | 0.319 | 0.313 | 0.92 | 0.849 | 0.94 | 0.836 |
| HCC-827 | 1.03 | 0.985 | 1.06 | 1.03 | 1.04 | 0.806 | 1 | 1.01 | 0.789 | 0.314 | 0.314 | 0.376 | 0.302 | 0.967 | 1.05 | 1.03 | 0.998 |
| HOP-62 | 0.997 | 0.942 | 1.04 | 0.951 | 1.05 | 0.682 | 0.661 | 0.591 | 0.694 | 0.191 | 0.256 | 0.226 | 0.255 | 1.25 | 1.2 | 1.05 | 1.09 |
| LC-2-ad | 0.56 | 0.417 | 0.579 | 0.419 | 0.487 | 0.695 | 0.737 | 0.707 | 0.656 | 0.786 | 0.774 | 0.751 | 0.689 | 0.908 | 0.911 | 0.829 | 0.908 |
| LCLC-97TM1 |  | 0.337 | 0.475 | 0.641 | 0.328 | 0.941 | 0.878 |  | 0.763 | 0.252 | 0.269 |  | 0.24 | 0.975 | 0.963 | 0.935 | 0.883 |
| LK-2 | 0.787 | 0.927 | 0.77 | 0.872 | 0.889 | 0.341 | 0.346 | 0.343 | 0.353 | 0.352 | 0.335 | 0.347 | 0.326 | 1.15 | 1.23 | 1.18 | 1.29 |
| LOU-NH91 | 0.691 | 0.709 | 0.697 | 0.632 | 0.572 | 0.899 | 0.936 | 0.917 | 0.903 | 0.815 | 0.859 | 0.783 | 0.799 | 0.913 | 1.03 | 0.904 | 0.936 |
| LU99A | 0.714 | 0.959 | 0.841 | 0.776 | 0.807 | 0.512 | 0.54 | 0.488 | 0.553 | 0.81 | 0.95 | 0.933 | 0.876 | 0.787 | 0.888 | 0.828 | 0.843 |
| LXF-289 | 0.978 | 0.949 | 0.935 | 0.886 | 0.926 | 0.82 | 0.92 | 0.84 | 0.7 | 0.341 | 0.339 | 0.353 | 0.407 | 1.04 | 0.968 | 0.986 | 0.961 |
| NCI-H23 | 0.782 | 0.807 | 0.868 | 0.794 | 0.833 | 0.559 | 0.674 | 0.629 | 0.792 | 0.347 | 0.332 | 0.322 | 0.304 | 1.05 | 1.03 | 0.928 | 1.1 |
